From PubChem BioAssay (NCI)
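Each compound was tested at five concentrations against cells in 96-well plates for 48 hours. GI50: concentration for 50% inhibition of growth. TGI: concentration producing complete growth inhibition.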

Experiments:
Assay in all cases: DTP human tumour cell line panel, 48 h
CCRF-CEM leukemia = tested on: CCRF-CEM leukemia
SF-539 CNS = tested on: SF-539 CNS
SF-268 CNS = tested on: SF-268 CNS
MOLT-4 leukemia = tested on: MOLT-4 leukemia
UACC-257 melanoma = tested on: UACC-257 melanoma
SW-620 colon = tested on: SW-620 colon
HOP-92 NSCLC = tested on: HOP-92 NSCLC
ACHN renal = tested on: ACHN renal
OVCAR-8 ovarian = tested on: OVCAR-8 ovarian
LOX IMVI melanoma = tested on: LOX IMVI melanoma
OVCAR-4 ovarian = tested on: OVCAR-4 ovarian

Row | Structure (SMILES) | GI50 (CCRF-CEM leukemia) | TGI (CCRF-CEM leukemia) | GI50 (SF-539 CNS) | TGI (SF-539 CNS) | GI50 (SF-268 CNS) | TGI (SF-268 CNS) | GI50 (MOLT-4 leukemia) | TGI (MOLT-4 leukemia) | GI50 (UACC-257 melanoma) | TGI (UACC-257 melanoma) | GI50 (SW-620 colon) | TGI (SW-620 colon) | GI50 (HOP-92 NSCLC) | TGI (HOP-92 NSCLC) | GI50 (ACHN renal) | TGI (ACHN renal) | GI50 (OVCAR-8 ovarian) | TGI (OVCAR-8 ovarian) | TGI (LOX IMVI melanoma) | TGI (OVCAR-4 ovarian)
1 | C[C@]12CCc3sc(Nc4ccc(O)cc4)nc3C1=CC[C@@H]1[C@@H]2CC[C@]2(C)C(=O)CC[C@@H]12 | 2470 nM | > 100 µM | 1760 nM | 3.59 µM | 3.37 µM | > 100 µM | 2380 nM | > 100 µM | 1860 nM | 4.62 µM | 2080 nM | 4.73 µM | 2390 nM | 5.65 µM | 2920 nM | 9.29 µM | 3.22 µM | > 100 µM |  | 
2 | COc1ccc(-c2c3c(nc4nc(SC)nc(SC)c24)CCCC3)cc1OC |  | 90.2 µM |  | > 100 µM |  | > 100 µM |  | > 100 µM |  | > 100 µM |  | > 100 µM |  | > 100 µM |  | > 100 µM |  |  | > 100 µM | 
3 | CCc1nnc(-c2nsc3ccccc23)s1 |  | > 100 µM |  | > 100 µM |  | > 100 µM |  | > 100 µM |  | > 100 µM |  | > 100 µM |  | > 100 µM |  | > 100 µM |  | > 100 µM | > 100 µM | > 100 µM
4 | CCSc1nc(=[N+]2CCCC2)ss1 |  | 13.2 µM |  | > 85.6 µM |  | > 100 µM |  | 30 µM |  | > 100 µM |  | > 100 µM |  | > 100 µM |  | > 100 µM |  | > 100 µM | 55.2 µM | > 100 µM
5 | NC(=S)N/N=C1\c2ccccc2CCC1CCC1(O)CCc2ccccc2C1=O (stereo unspecified) |  | 86 µM |  | 29.5 µM |  | > 100 µM |  | 88.2 µM |  | 33.3 µM |  | > 100 µM |  |  |  | > 100 µM |  | 35.1 µM | 44.3 µM | > 100 µM
6 | CC(c1ccccc1)/[N+]([O-])=C/c1ccccc1 (stereo unspecified) |  | > 100 µM |  | > 100 µM |  | > 100 µM |  | > 100 µM |  | > 100 µM |  | > 100 µM |  | > 100 µM |  | > 100 µM |  | > 100 µM | > 100 µM | 
7 | O=C(O)CC1OCC=C2CN3CCC45C6=CC(=O)C(=O)C([N+](=O)[O-])=C6NC4C1C2CC35 (stereo unspecified) |  | 61.8 µM |  | > 100 µM |  | > 100 µM |  | > 100 µM |  | > 100 µM |  | > 100 µM |  | > 100 µM |  | > 100 µM |  | > 100 µM | > 100 µM | > 100 µM
8 | C/C(=N\NC(=S)Nc1ccc(C)cc1)c1nc2ncccc2[nH]1 |  | 11.5 µM |  | 5.71 µM |  | 35.7 µM |  | 17.6 µM |  | 9.48 µM |  | 24 µM |  | 24.1 µM |  | 14.3 µM |  | 12.3 µM | 8.29 µM | 16.7 µM
9 | CN1CCN(c2cc(-c3cc4ccccc4o3)oc(=O)c2C#N)CC1 |  | > 100 µM |  | > 100 µM |  | > 100 µM |  | > 100 µM |  | > 100 µM |  | > 100 µM |  |  |  | > 100 µM |  | > 100 µM | > 100 µM | > 100 µM
10 | O=C(O)CC1(CC(=O)O)Nc2ccccc2SC1=O |  | > 100 µM |  |  |  | > 100 µM |  | > 100 µM |  | > 100 µM |  | > 100 µM |  | > 100 µM |  | > 100 µM |  | > 100 µM | > 100 µM | > 100 µM
11 | Cc1ccc(Nc2nc(NS(=O)(=O)c3cc(C(=O)Nc4ccc(Cl)cc4)c(Cl)cc3S)n[nH]2)cc1 |  | > 100 µM |  | > 100 µM |  | > 100 µM |  | > 100 µM |  | > 100 µM |  | > 100 µM |  |  |  | > 100 µM |  | > 100 µM | > 100 µM | > 100 µM
12 | CC(CCC(=O)O)C1CCC2C3C(O)CC4CC(O)CCC4(C)C3CC(O)C12C (stereo unspecified) |  | > 100 µM |  | > 100 µM |  | > 100 µM |  | > 100 µM |  | > 100 µM |  | > 100 µM |  | > 100 µM |  | > 100 µM |  | > 100 µM | > 100 µM | > 100 µM
13 | CC1OC1C(=O)C1(O)C(C)C(O)C23OC2(C(O)c2c(O)cccc2C3=O)C1O (stereo unspecified) |  |  |  | 0.276 µM |  | 0.525 µM |  | 0.495 µM |  | 0.714 µM |  | 1.21 µM |  | 0.0971 µM |  |  |  | 1.72 µM | 0.629 µM | 0.0982 µM
14 | COC1=CC(=O)c2c(O)c3c(c(O)c2C1=O)C=C(C)OC3O (stereo unspecified) |  | 16.1 µM |  | 3.4 µM |  | 5.86 µM |  | 5.04 µM |  | 0.754 µM |  | 2.84 µM |  | 20.9 µM |  | 6.89 µM |  | 2.82 µM | 1.9 µM | 4.39 µM
15 | O=C(NN1C(=O)CSC1c1ccc(C(F)(F)F)cc1)c1ccncc1 (stereo unspecified) |  | > 100 µM |  | > 100 µM |  | > 100 µM |  | > 100 µM |  | > 100 µM |  | > 100 µM |  | > 100 µM |  |  |  | > 100 µM | > 100 µM | > 100 µM
16 | CCOP(=O)(CN=C(c1ccccc1)c1ccccc1)OCC |  | > 100 µM |  |  |  |  |  | > 100 µM |  | > 100 µM |  | > 100 µM |  | > 100 µM |  | > 100 µM |  | > 100 µM | > 100 µM | > 100 µM
